# According to the supplement of paper PMC13380429:
# Assays:
# Conditions in all cases: 72 h
# [1] = tested on: HepG2; assay: drug sensitivity score (DSS) for viability; higher = more toxic; extreme values may be limits of the assay
# [2] = tested on: Caco-2; assay: as above
# [3] = tested on: U2OS; assay: as above
# [4] = tested on: Calu-3; assay: as above
# [5] = tested on: Vero E6; assay: as above
# [6] = tested on: HepG2; assay: cell viability relative to DMSO; higher = less toxic
# [7] = tested on: Caco-2; assay: as above
# [8] = tested on: U2OS; assay: as above
# [9] = tested on: Calu-3; assay: as above
# [10] = tested on: Vero E6; assay: as above
# [11] = tested on: HepG2; assay: relative viability EC50 (midpoint between 100% and the lowest measured viability); higher = less toxic
# [12] = tested on: Caco-2; assay: as above
# [13] = tested on: U2OS; assay: as above
# [14] = tested on: Calu-3; assay: as above
# [15] = tested on: Vero E6; assay: as above
Structure (SMILES),drug sensitivity score [1],drug sensitivity score [2],drug sensitivity score [3],drug sensitivity score [4],drug sensitivity score [5],cell viability ([6]; 1 nM),cell viability ([6]; 10 nM),cell viability ([6]; 100 nM),cell viability ([6]; 1000 nM),cell viability ([6]; 10000 nM),cell viability ([7]; 1 nM),cell viability ([7]; 10 nM),cell viability ([7]; 100 nM),cell viability ([7]; 1000 nM),cell viability ([7]; 10000 nM),cell viability ([8]; 1 nM),cell viability ([8]; 10 nM),cell viability ([8]; 100 nM),cell viability ([8]; 1000 nM),cell viability ([8]; 10000 nM),cell viability ([9]; 1 nM),cell viability ([9]; 10 nM),cell viability ([9]; 100 nM),cell viability ([9]; 1000 nM),cell viability ([9]; 10000 nM),cell viability ([10]; 1 nM),cell viability ([10]; 10 nM),cell viability ([10]; 100 nM),cell viability ([10]; 1000 nM),cell viability ([10]; 10000 nM),relative viability EC50 [11],relative viability EC50 [12],relative viability EC50 [13],relative viability EC50 [14],relative viability EC50 [15]
NCCCC(O)(P(=O)(O)O)P(=O)(O)O [alendronate],0.1,0,0,0,0,101%,91.7%,107%,95.4%,88.8%,97.4%,102%,96.9%,99.8%,94.3%,96.6%,103%,94.8%,104%,97.7%,85.5%,103%,92.3%,107%,98.5%,102%,98.5%,106%,103%,106%,> 10 µM,> 10 µM,> 10 µM,> 10 µM,> 10 µM
Cc1[nH]cnc1CN1CCc2c(c3ccccc3n2C)C1=O [alosetron],3.7,0,0,0,0,111%,93.7%,83.9%,89.1%,94.4%,101%,98.7%,95.6%,104%,109%,98.2%,95.6%,104%,96.9%,99.5%,102%,93.5%,102%,91.7%,106%,99.3%,94.5%,93.1%,96.5%,97%,> 10 µM,> 10 µM,> 10 µM,> 10 µM,> 10 µM
CN(C)c1nc(N(C)C)nc(N(C)C)n1 [altretamine],0,0,0,0,0,97.3%,96.7%,94.9%,96%,93.9%,97.8%,100%,99.8%,106%,89.9%,100%,104%,96.5%,103%,97.2%,92.7%,95.6%,111%,99.3%,102%,104%,98.3%,95.5%,93%,101%,> 10 µM,> 10 µM,> 10 µM,> 10 µM,> 10 µM
CCN(CC)C(C)C(=O)c1ccccc1 (stereo not given) [amfepramone],0,0,0,0,0,106%,102%,100%,96.6%,101%,117%,95.9%,103%,102%,128%,100%,95.3%,98.1%,95.2%,98.6%,109%,85.5%,93.6%,93.7%,103%,92.3%,102%,106%,106%,86.8%,> 10 µM,> 10 µM,> 10 µM,> 10 µM,> 10 µM
C[C@@H]1[C@H](O)[C@@H](C)/C=C/C=C/C=C/C=C/C=C/C=C/C=C/[C@H](O[C@@H]2O[C@H](C)[C@@H](O)[C@H](N)[C@@H]2O)C[C@@H]2O[C@](O)(C[C@@H](O)C[C@@H](O)[C@H](O)CC[C@@H](O)C[C@@H](O)CC(=O)O[C@H]1C)C[C@H](O)[C@H]2C(=O)O [amphotericin-b],0,0,0,0,0,97.4%,102%,101%,101%,101%,106%,91.1%,108%,100%,98.6%,101%,97%,101%,97.6%,101%,98.4%,105%,95.7%,103%,99.5%,101%,102%,103%,101%,99.6%,> 10 µM,> 10 µM,> 10 µM,> 10 µM,> 10 µM
CCCNC(C)C(=O)Nc1c(C)csc1C(=O)OC (stereo not given) [articaine],0,0,0,0,0,97.9%,105%,110%,104%,112%,98.5%,96.7%,95.2%,104%,105%,96.5%,95.8%,99.7%,92.8%,105%,94%,94.6%,100%,93.5%,106%,93.4%,93.1%,96.1%,97.3%,108%,> 10 µM,> 10 µM,> 10 µM,> 10 µM,> 10 µM
C[C@H]1[C@H](C)CC[C@]2(C(=O)O)CC[C@]3(C)C(=CC[C@@H]4[C@@]5(C)C[C@@H](O)[C@H](O)[C@@](C)(CO)[C@@H]5CC[C@]43C)[C@H]12 [asiatic-acid],0,0.4,0,0,0,83.4%,80.2%,78.6%,90.2%,88.9%,101%,104%,89.2%,94.2%,95.6%,98.1%,105%,95.6%,104%,96.9%,98.3%,93.2%,106%,90.6%,97.5%,106%,111%,106%,93%,105%,> 10 µM,> 10 µM,> 10 µM,> 10 µM,> 10 µM
CN(C)C(=O)Nc1cccc(-c2ccc(N(C)C)cc2)c1 [atglistatin],0,0,0,0,0,98.2%,97.9%,99.4%,108%,113%,84.3%,100%,92.2%,88.7%,104%,96.4%,99.3%,97.8%,98.5%,96.5%,111%,99.2%,90.1%,96.6%,103%,99%,99.7%,98.3%,97.6%,107%,> 10 µM,> 10 µM,> 10 µM,> 10 µM,> 10 µM
CN1C(=O)COc2c(C(=O)NC3CN4CCC3CC4)cc(Cl)cc21 (stereo not given) [azasetron],0,0,0,0,0,91.6%,99%,87.9%,94.5%,96.2%,98.4%,94.9%,96.6%,98.7%,98.5%,101%,91.4%,95.6%,99%,99.2%,91.4%,93.1%,103%,110%,111%,102%,94.4%,91.8%,86.2%,105%,> 10 µM,> 10 µM,> 10 µM,> 10 µM,> 10 µM
CCCCc1nc(-c2ccc(OCCCN(CC)CC)cc2)cn1-c1ccc(Oc2ccc(Cl)cc2)cc1 [azeliragon],6.4,6.3,5.3,5.2,5.7,95.1%,94.8%,90.2%,94%,0.1%,101%,97%,99.4%,93.5%,4.5%,97.7%,97.8%,98.9%,91%,30.4%,109%,105%,99.4%,98.9%,8.5%,96.2%,105%,91.8%,99.5%,0%,2.69 µM,2.61 µM,2.12 µM,3.08 µM,3.13 µM
CC(C)(CCCCCC(O)CCCCCC(C)(C)C(=O)O)C(=O)O [bempedoic-acid],0,0,0,0,0,102%,98.2%,107%,98.2%,102%,98.5%,95.6%,96.8%,96.1%,95%,97.6%,97.2%,97.7%,100%,100%,90.2%,92.3%,87.2%,92.1%,92.6%,106%,104%,98%,100%,98%,> 10 µM,> 10 µM,> 10 µM,> 10 µM,> 10 µM
O=C(CCCN1CCC(n2c(=O)[nH]c3ccccc32)CC1)c1ccc(F)cc1 [benperidol],0,0,0,0,0,103%,107%,107%,107%,97.5%,102%,99.2%,98.1%,102%,103%,98.2%,108%,98.1%,106%,96.1%,101%,88.1%,82.4%,94.4%,99.1%,105%,96.2%,98%,100%,95.9%,> 10 µM,> 10 µM,> 10 µM,> 10 µM,> 10 µM
CC(COc1ccccc1Cc1ccccc1)N1CCCCC1 (stereo not given) [benproperine],1.5,0.3,0,0,0,104%,109%,96.5%,85.7%,87.9%,90.6%,106%,96.4%,100%,83.4%,92.8%,96.3%,92%,102%,89.3%,94.8%,106%,89%,103%,88.4%,112%,100%,103%,101%,98.1%,> 10 µM,> 10 µM,> 10 µM,> 10 µM,> 10 µM
CC(C)(Oc1ccc(CCNC(=O)c2ccc(Cl)cc2)cc1)C(=O)O [bezafibrate],0,0,0,0,0,98.1%,93.1%,91.5%,97.4%,102%,102%,95.7%,96.8%,98%,94.3%,102%,97%,96.2%,94%,98.3%,110%,98.5%,108%,97%,98.4%,106%,105%,101%,104%,93.4%,> 10 µM,> 10 µM,> 10 µM,> 10 µM,> 10 µM
